The record followed here is patent US20120028917A1, “Use Of N-(4-((3-(2-Amino-4-Pyrimidinyl)-2-Pyridinyl)Oxy)Phenyl)-4-(4-Methyl-2-Thienyl)-1-Phthalazinamine In The Treatment Of Antimitotic Agent Resistant Cancer” (Amgen Inc., priority 2009, published 2012).

The term EC50 denotes the concentration needed to bring the measured effect to its halfway point.

Experiment [1] concerns HCT116 AZD1152-resistant. The experiment is described as follows: ≧4N DNA content assay (FIG. 6-A). Conditions: Homo sapiens, HCT-116; HCT116 AZD1152-resistant subline; 24 hours; read-out: cellular ≧4N DNA content EC50. The format is cell-based. The protocol:
Tumor cell lines were obtained from the American Type Culture Collection (ATCC) unless otherwise specified. The MDA-MB-231-PTX and NCI-H460-PTX cell lines were established by growing the cells in the presence of increasing concentrations of paclitaxel over a period of 6 months. The HCT116 AZD1152-resistant cell line was established by growing the cells in the presence of AZD1152 at 80 nmol/L.
(§1) Tumor cells were treated with AMG 900, AZD1152, MK-0457, or PHA-739358 (range concentration varied based on potency) for 24 hours and processed for cell-cycle analysis (DNA staining only) as previously described (1). Cells were analyzed on a LSRII flow cytometer using BD FACS Diva software. The concentration-response curves and corresponding EC50 values were calculated using the percentage of cells with ≧4N DNA content versus the DMSO control.
HCT116 cell lines were treated with increasing concentrations of AMG 900 or AZD1152 for 24 hours. Flow cytometry was used to assess the accumulation of cells with ≧4N DNA content expressed as a percentage of the DMSO-treated control (POC). The concentration-response curves and calculated EC50 values were determined from two independent experiments (bars, ±SD).

The test system of experiment [2] is MES-SA Dx5 xenograft. The experiment is described as follows: Xenograft tumor growth inhibition (Example 3). The format is in vivo, athymic nude mice. As for the experimental part:
To investigate whether AMG 900-induced suppression of aurora kinase activity inhibits cell proliferation, the antiproliferative efficacy of AMG 900 was evaluated in-vivo in multiple human cancer xenograft models, including breast, colon, leukemia, lung, pancreatic, and uterine cancer models, grown in athymic nude mice. Mice were administered AMG 900 orally at 3.75, 7.5, or 15 mg/kg BID for 2 consecutive days per week or 3 mg/kg BID everyday for the duration of the study beginning when tumors were established. The reagents, solutions, equipment, formulation of AMG 900, tumor volume measurements and calculations were generally as described in Example 4 below.
The effect of AMG 900 was tested on the multidrug resistant cell line MES-SA Dx5 grown in vivo as a tumor xenograft. Mice were administered AMG 900 orally at 15 mg/kg BID for 2 consecutive days per week or 3.0 mg/kg BID everyday for the duration of the study. Dosing was initiated when tumors were established (10 days after tumor implantation).
MES-SA Dx5, multi-drug resistant, cells (2×10^6) were injected subcutaneously in the right flank of female athymic nude mice. Tumors were measured twice per week. Treatment began on day 10 when the tumors were ˜100 mm^3. […] P-values correspond to statistical difference between groups treated with vehicle and AMG 900 determined by RMANOVA followed by Dunnett's post-hoc test. […]

Experiment [3] concerns MES-SA Dx5. The experiment is described as follows: p-Histone H3 assay (ArrayScan VTi). It is filed as cell-based. Conditions: Homo sapiens, 24 h; MES-SA Dx5, Uterine, Doxorubicin-selected, P-gp overexpressing. As for the experimental part:
(§2) MES-SA Dx5 and MES-SA cells were plated at a density of 10,000 cells/well onto 96-well plate in complete media and cultured for 24 hours. […] Cells were washed and fixed by adding 100 μL of 2× formaldehyde fixation buffer for 10 minutes and room temperature. […] Cells were immunostained with p-histone H3 antibody (5 μg/mL) and incubated at room temperature for 2 hours. Cells were washed in 100 μL of wash buffer. Next, cells were incubated with a goat anti-rabbit alexa-488 conjugated antibody (1.5 μg/mL) in wash buffer supplemented with Hoechest DNA dye (1 μg/mL) and incubated at room temperature in the dark for 30 minutes. Cells were washed twice with 100 μL of wash buffer. The 96-well plates were analyzed on an ArrayScan VTi (Cellomics) using a bioapplication algorithm (TargetActivation.V2). […] Cells were then fixed and stained with p-histone H3 antibody and counterstained with a DNA dye (Hoechest). Imaging-based analysis (ArrayScan VTi) was performed to measure the percentage of p-histone H3 positive cells. The dose-response curves represent either AMG 900 or taxol concentrations plotted against p-Histone H3 positive cells as a percentage of DMSO-treated control (POC). The EC50 values were calculated by 4-parameter fit model.

For experiment [4], the system named is MES-SA. In words: p-Histone H3 assay (ArrayScan VTi). Conditions: Homo sapiens, 24 h, Uterine, Parent line. The format is cell-based. The protocol: as §2
In experiment [5] the test system is RPMI8226. The experiment is described as follows: ≧4N DNA content assay (flow cytometry). It is filed as cell-based, human. Conditions: Homo sapiens. As for the experimental part:
as §1
On the technique in general: In flow cytometry, cells or beads pass a laser one at a time.

The subject of experiment [6] is U226-B1. The experiment is described as follows: ≧4N DNA content assay (flow cytometry). The format is cell-based, human. Conditions: Homo sapiens; U226-B1, BCRP −; 24 hours. The protocol: as §1
Experiment [7] concerns NCI-H460-taxol resistant tumor xenografts. In words: Growth of established NCI-H460-taxol resistant xenografts (Example 4). The format is in vivo, athymic nude mice. The protocol:
To investigate whether AMG 900-induced suppression of aurora kinase activity inhibits cell proliferation, the antitumor efficacy of AMG 900 was evaluated in vivo against NCI-H460-taxol resistant tumor xenografts in athymic nude mice. Mice were dosed PO with AMG 900 (BID) either intermittently or continuously. Mice were dosed IP with paclitaxel (taxol) 5 days/week. An internal Amgen compound was used as a positive control in this study (data not shown). Tumors were measured twice per week. Treatment began on day 12 when the tumors were established. All groups were provided nutritional supplements on a daily basis throughout the study to maintain body weight. AMG 900 (free base) was formulated into suspension to concentrations of 1.5 and 0.3 mg/mL. […] The duration of the dosing phase for AMG 900 was three weeks, and two weeks for the taxol group. The tumors were measured with a digital caliper and the mice were weighed twice per week. Tumor volumes were calculated as follows: […] Tumor inhibition was calculated as follows: […] FIG. 5 illustrates the effects of AMG 900 and Taxol treatment on the growth of established H460-taxol resistant tumors. […] Tumors were measured twice per week. Treatment began 12 days after tumor implantation (arrow) when tumors were approximately 170 mm^3. Mice were dosed PO or IP once or twice daily for 3 weeks. Data represent mean ±SE for each group. *P values (not shown) correspond to statistical difference between groups treated with vehicle and AMG 900 or Taxol analyzed with repeated measure Sheffe's ANOVA over time using […]. The scheduled days listed in the legend represent days/ week. All groups were provided nutritional supplements throughout the study.

Setting [8] is: 3mpk PO BID 7 days/week × 3 wks.
Setting [9] is: 15mpk PO BID 2 days ON/5 day OFF/week × 3 wks.

Where “and” joins values, the source holds several entries; their conditions need not be identical. Identical values can stand only once. Like-named read-outs stand apart in the source and are kept apart here.

On to `Cc1csc(-c2nnc(Nc3ccc(Oc4ncccc4-c4ccnc(N)n4)cc3)c3ccccc23)c1` [AMG 900, N-(4-((3-(2-amino-4-pyrimidinyl)-2-pyridinyl)oxy)phenyl)-4-(4-methyl-2-thienyl)-1-phthalazinamine], for which the EC50 was 5 nM in experiment [1]; < 2 nM in experiment [3]; < 2 nM in experiment [4]; 3 nM in experiment [5] (RPMI-8226, RPMI8226, BCRP +, 24 hours, read-out: ≧4N DNA Content assay, EC50 value); 3 nM in experiment [5] (RPMI-8226**, Multiple Myeloma, P-gp− and/or BCRP+, read-out: Cellular EC50); 2 nM in experiment [6]. In addition, the “% TGI (tumor growth inhibition)” value in experiment [2] (MES-SA Dx5, Uterine, oral BID, best of intermittent or continuous dose schedule) was found to be 73%. In addition, the “tumor growth vs vehicle control” value in experiment [2] (MES-SA Dx5, 15 mg/kg BID 2 consecutive days per week and 3.0 mg/kg BID everyday, p<0.0001) is recorded as “statistically significant tumor growth inhibition”. The “% Inhibition (tumor growth)” value in experiment [7] (setting [8]) is 60% and 60.4%; in experiment [7] (setting [9]) it was 66% and 65.7%. In addition, the “Tumor volume, Mean” value is 771 mm^3 in experiment [7] (setting [8]) and 689 mm^3 in experiment [7] (setting [9]). In addition, the “Tumor volume, Median” value is recorded as 715.6 mm^3 in experiment [7] (setting [8]) and 612.5 mm^3 in experiment [7] (setting [9]).
